# From patent US20210255193A1, “LYSINE REACTIVE PROBES AND USES THEREOF” (The Scripps Research Institute, priority 2017, published 2021)
# Tests used:
# Test in all cases: competitive isoTOP-ABPP
# Format in all cases: binding
# DTYMK Thymidylate kinase = molecular target: T1, DTYMK Thymidylate kinase (Homo sapiens, UniProt P23919); settings: for isoTOP-ABPP ratio (R) at liganded lysine P23919_K118: sol, 231; for isoTOP-ABPP ratio, lysine P23919_K118: 50 uM_231_sol_in vitro
# T1 construct: isoTOP-ABPP experiments performed in cell lysates (in vitro); endogenous in cells; host or cells: soluble proteome of human cancer cell lines (MDA-MB-231; Ramos and Jurkat also prepared)
# T1 sequence (P23919 1-212): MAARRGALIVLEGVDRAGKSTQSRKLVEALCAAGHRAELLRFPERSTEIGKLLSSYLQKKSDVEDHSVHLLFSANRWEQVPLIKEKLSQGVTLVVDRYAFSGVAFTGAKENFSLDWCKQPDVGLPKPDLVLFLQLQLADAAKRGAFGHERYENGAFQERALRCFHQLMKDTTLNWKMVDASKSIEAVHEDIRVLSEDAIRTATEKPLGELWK
# Method in brief: (§1)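 Fragments at 50 μM (activated esters) or 100 μM (guanidinylating agents) were incubated with 0.5 ml lysate before probe labeling. After 0.1 mM STP-alkyne for 1 h, samples were clicked to isotopically distinct TEV tags, and R taken as DMSO-over-compound MS1 peak-area ratio.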
# [1] = molecular target: T2, LDHB L-lactate dehydrogenase B chain (Homo sapiens, UniProt P07195); settings: for R value (DMSO/fragment) for probe 1 labeling / isoTOP-ABPP ratio (R) at liganded lysine P07195_K82 / isoTOP-ABPP ratio (R) at liganded lysine P07195_K244: 50 uM, in vitro; for R value (DMSO/fragment) for probe 1 labeling: 231 sol; for isoTOP-ABPP ratio (R) at liganded lysine P07195_K82 / isoTOP-ABPP ratio (R) at liganded lysine P07195_K244: sol, 231
# T2 construct: isoTOP-ABPP experiments performed in cell lysates (in vitro); endogenous in cells; host or cells: MDA-MB-231 soluble lysate
# T2 sequence (P07195 whole entry, the tested form may be a part): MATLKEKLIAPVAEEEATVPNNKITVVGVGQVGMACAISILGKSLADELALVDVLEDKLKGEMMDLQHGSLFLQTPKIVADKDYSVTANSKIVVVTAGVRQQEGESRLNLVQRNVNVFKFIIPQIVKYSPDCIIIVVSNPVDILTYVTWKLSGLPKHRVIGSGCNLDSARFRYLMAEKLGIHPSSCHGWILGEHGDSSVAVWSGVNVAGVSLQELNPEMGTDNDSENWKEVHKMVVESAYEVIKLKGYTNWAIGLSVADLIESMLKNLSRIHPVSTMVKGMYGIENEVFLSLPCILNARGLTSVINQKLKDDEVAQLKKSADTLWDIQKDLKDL
# Method in brief: as §1
# FAM136A Protein FAM136A = molecular target: T3, FAM136A Protein FAM136A (Homo sapiens, UniProt Q96C01); settings: for isoTOP-ABPP ratio (R) at liganded lysine Q96C01_K99: sol, 231; for isoTOP-ABPP ratio, lysine Q96C01_K99: 50 uM_231_sol_in vitro
# T3 construct: isoTOP-ABPP experiments performed in cell lysates (in vitro); endogenous in cells; host or cells: soluble proteome of human cancer cell lines (MDA-MB-231; Ramos and Jurkat also prepared)
# T3 sequence (Q96C01 whole entry): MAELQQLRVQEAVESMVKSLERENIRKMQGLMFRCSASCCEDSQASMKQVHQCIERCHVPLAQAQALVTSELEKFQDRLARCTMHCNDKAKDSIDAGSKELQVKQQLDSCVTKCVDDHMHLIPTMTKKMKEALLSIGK
# Method in brief: as §1
# [2] = molecular target: T4, ETFA Electron transfer flavoprotein subunit alpha, mitochondrial (Homo sapiens, UniProt P13804); settings: for isoTOP-ABPP ratio (R) at liganded lysine P13804_K139: sol, 231; for isoTOP-ABPP ratio, lysine P13804_K139: 50 uM_231_sol_in vitro
# T4 construct: isoTOP-ABPP experiments performed in cell lysates (in vitro); endogenous in cells; host or cells: soluble proteome of human cancer cell lines (MDA-MB-231; Ramos and Jurkat also prepared)
# T4 sequence (P13804 20-333): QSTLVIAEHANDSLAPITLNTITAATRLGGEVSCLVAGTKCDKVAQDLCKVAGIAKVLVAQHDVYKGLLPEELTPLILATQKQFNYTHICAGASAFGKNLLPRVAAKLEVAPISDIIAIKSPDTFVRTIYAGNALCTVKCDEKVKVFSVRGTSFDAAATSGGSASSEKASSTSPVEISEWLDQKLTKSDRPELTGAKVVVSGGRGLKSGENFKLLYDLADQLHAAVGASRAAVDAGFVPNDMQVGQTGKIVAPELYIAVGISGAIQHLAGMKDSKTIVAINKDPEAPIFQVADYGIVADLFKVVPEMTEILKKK
# T4 sequence (P38117 2-255 partner limits assumed): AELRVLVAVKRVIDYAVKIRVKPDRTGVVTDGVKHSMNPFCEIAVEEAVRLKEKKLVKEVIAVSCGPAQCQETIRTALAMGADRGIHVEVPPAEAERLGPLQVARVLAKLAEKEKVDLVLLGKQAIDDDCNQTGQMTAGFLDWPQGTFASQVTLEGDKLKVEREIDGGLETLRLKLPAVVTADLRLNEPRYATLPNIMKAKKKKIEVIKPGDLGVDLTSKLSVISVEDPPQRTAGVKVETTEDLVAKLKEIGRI
# Method in brief: as §1
# [3] = molecular target: T5, SLC25A5 ADP/ATP translocase 2 (Homo sapiens, UniProt P05141); settings: for isoTOP-ABPP ratio (R) at liganded lysine P05141_K23: sol, 231; for isoTOP-ABPP ratio, lysine P05141_K23: 50 uM_231_sol_in vitro
# T5 construct: isoTOP-ABPP experiments performed in cell lysates (in vitro); endogenous in cells; host or cells: MDA-MB-231 soluble lysate
# T5 sequence (P05141 1-298): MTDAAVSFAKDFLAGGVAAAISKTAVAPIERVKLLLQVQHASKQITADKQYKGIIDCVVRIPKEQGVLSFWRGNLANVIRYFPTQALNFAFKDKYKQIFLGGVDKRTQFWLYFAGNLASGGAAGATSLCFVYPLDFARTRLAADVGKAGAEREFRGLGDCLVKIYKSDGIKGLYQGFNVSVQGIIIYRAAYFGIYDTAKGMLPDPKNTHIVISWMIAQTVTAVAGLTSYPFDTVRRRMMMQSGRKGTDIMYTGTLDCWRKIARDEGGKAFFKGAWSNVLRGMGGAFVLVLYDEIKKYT
# Method in brief: as §1
structure (smiles),measurement,setting,value
"O=C(Oc1c(F)c(F)c(F)c(F)c1F)C(c1ccccc1)c1ccccc1 [fragment 20, Pentafluorophenyl 2,2-diphenylacetate]",R value (DMSO/fragment) for probe 1 labeling,"DTYMK Thymidylate kinase; P23919_K118, 50 uM, 231 sol, in vitro",0.9
same,R value (DMSO/fragment) for probe 1 labeling,[1]; P07195_K82,1.2
same,R value (DMSO/fragment) for probe 1 labeling,[1]; P07195_K244,1.0
same,R value (DMSO/fragment) for probe 1 labeling,"FAM136A Protein FAM136A; Q96C01_K99, 50 uM, 231 sol, in vitro",0.9
same,R value (DMSO/fragment) for probe 1 labeling,"[2]; P13804_K139, 50 uM, 231 sol, in vitro",0.9
"O=C(CCc1cn(-c2ccccc2)nc1-c1ccccc1)Oc1ccc([N+](=O)[O-])cc1[N+](=O)[O-] [fragment 29, 2,4-Dinitrophenyl 3-(1,3-diphenyl-1H-pyrazol-4-yl)propanoate]",isoTOP-ABPP reactivity ratio at lysine P23919_K118,"DTYMK Thymidylate kinase; 50 uM, 231 sol, in vitro",1.1
same,isoTOP-ABPP reactivity ratio at lysine P05141_K23,"[3]; 50 uM, 231 sol, in vitro",1.5
same,isoTOP-ABPP reactivity ratio at lysine Q96C01_K99,"FAM136A Protein FAM136A; 50 uM, 231 sol, in vitro",0.8
same,isoTOP-ABPP reactivity ratio at lysine P13804_K139,"[2]; 50 uM, 231 sol, in vitro",0.8
"O=C(Oc1ccc([N+](=O)[O-])cc1[N+](=O)[O-])c1ccc(-c2ccccc2)cc1 [fragment 37, 2,4-Dinitrophenyl [1,1′-biphenyl]-4-carboxylate]",isoTOP-ABPP ratio (R) at liganded lysine P23919_K118,"DTYMK Thymidylate kinase; 50 uM, in vitro",0.9
same,isoTOP-ABPP ratio (R) at liganded lysine P05141_K23,"[3]; 50 uM, in vitro",1.2
same,isoTOP-ABPP ratio (R) at liganded lysine P07195_K82,[1],0.8
same,isoTOP-ABPP ratio (R) at liganded lysine P07195_K244,[1],0.8
same,isoTOP-ABPP ratio (R) at liganded lysine Q96C01_K99,"FAM136A Protein FAM136A; 50 uM, in vitro",1.0
same,isoTOP-ABPP ratio (R) at liganded lysine P13804_K139,"[2]; 50 uM, in vitro",0.9
"O=C(Oc1ccc([N+](=O)[O-])cc1[N+](=O)[O-])c1ccc(Oc2ccccc2)cc1 [fragment 39, 2,4-Dinitrophenyl 4-phenoxybenzoate]",isoTOP-ABPP ratio (R) at liganded lysine P23919_K118,"DTYMK Thymidylate kinase; 50 uM, in vitro",0.8
same,isoTOP-ABPP ratio (R) at liganded lysine P05141_K23,"[3]; 50 uM, in vitro",0.9
same,isoTOP-ABPP ratio (R) at liganded lysine P07195_K82,[1],20.0
same,isoTOP-ABPP ratio (R) at liganded lysine P07195_K244,[1],1.0
same,isoTOP-ABPP ratio (R) at liganded lysine Q96C01_K99,"FAM136A Protein FAM136A; 50 uM, in vitro",0.8
same,isoTOP-ABPP ratio (R) at liganded lysine P13804_K139,"[2]; 50 uM, in vitro",0.6
"CC(C)(C)OC(=O)NCCCC(=O)Oc1ccc([N+](=O)[O-])cc1[N+](=O)[O-] [fragment 41, 2,4-Dinitrophenyl 4-((tert-butoxycarbonyl)amino)butanoate]",isoTOP-ABPP ratio (R) at liganded lysine P23919_K118,"DTYMK Thymidylate kinase; 50 uM, in vitro",0.8
same,isoTOP-ABPP ratio (R) at liganded lysine P05141_K23,"[3]; 50 uM, in vitro",1.0
same,isoTOP-ABPP ratio (R) at liganded lysine P07195_K244,[1],20.0
same,isoTOP-ABPP ratio (R) at liganded lysine Q96C01_K99,"FAM136A Protein FAM136A; 50 uM, in vitro",0.9
same,isoTOP-ABPP ratio (R) at liganded lysine P13804_K139,"[2]; 50 uM, in vitro",20.0
"O=C(Oc1c(F)c(F)c(C(F)(F)F)c(F)c1F)c1cc(C(F)(F)F)cc(C(F)(F)F)c1 [fragment 47, 2,3,5,6-Tetrafluoro-4-(trifluoromethyl)phenyl 3,5-bis(trifluoromethyl)benzoate]","isoTOP-ABPP ratio, lysine P23919_K118",DTYMK Thymidylate kinase,0.9
same,"isoTOP-ABPP ratio, lysine P05141_K23",[3],1.8
same,"isoTOP-ABPP ratio, lysine P07195_K244",[1]; 50 uM_231_sol_in vitro,1.0
same,"isoTOP-ABPP ratio, lysine Q96C01_K99",FAM136A Protein FAM136A,0.7
same,"isoTOP-ABPP ratio, lysine P13804_K139",[2],1.1
"O=C(Oc1c(F)c(F)cc(F)c1F)c1cc(C(F)(F)F)cc(C(F)(F)F)c1 [fragment 48, 2,3,5,6-Tetrafluorophenyl 3,5-bis(trifluoromethyl)benzoate]","isoTOP-ABPP ratio, lysine P23919_K118",DTYMK Thymidylate kinase,0.6
same,"isoTOP-ABPP ratio, lysine P05141_K23",[3],1.2
same,"isoTOP-ABPP ratio, lysine Q96C01_K99",FAM136A Protein FAM136A,5.5
same,"isoTOP-ABPP ratio, lysine P13804_K139",[2],0.9
